# In ChEMBL document CHEMBL4507303, “Data for DCP probe TP-004” (2021):
# Legend:
# [1] = biological target: Mitogen-activated protein kinase kinase kinase 20 (Homo sapiens) (UniProt Q9NYL2); conditions: Compound concentration 1000.0 nM
# [2] = biological target: Ribosomal protein S6 kinase alpha-6 (Homo sapiens) (UniProt Q9UK32); conditions: Compound concentration 1000.0 nM
# [3] = test system: Receptor-type tyrosine-protein kinase FLT3 (Homo sapiens), P36888 [K663Q]; conditions: Compound concentration 1000.0 nM
# [4] = biological target: BMP-2-inducible protein kinase (Homo sapiens) (UniProt Q9NSY1); conditions: Compound concentration 1000.0 nM
# [5] = biological target: 5-hydroxytryptamine receptor 1E (Homo sapiens) (UniProt P28566); conditions: Compound concentration 10.0 uM
# [6] = biological target: Tyrosine-protein kinase TXK (Homo sapiens) (UniProt P42681); conditions: Compound concentration 1000.0 nM
# [7] = biological target: Mitogen-activated protein kinase kinase kinase 6 (Homo sapiens) (UniProt O95382); conditions: Compound concentration 1000.0 nM
# Mitogen-activated protein kinase kinase kinase 6 (Homo sapiens), sequence (O95382 whole entry): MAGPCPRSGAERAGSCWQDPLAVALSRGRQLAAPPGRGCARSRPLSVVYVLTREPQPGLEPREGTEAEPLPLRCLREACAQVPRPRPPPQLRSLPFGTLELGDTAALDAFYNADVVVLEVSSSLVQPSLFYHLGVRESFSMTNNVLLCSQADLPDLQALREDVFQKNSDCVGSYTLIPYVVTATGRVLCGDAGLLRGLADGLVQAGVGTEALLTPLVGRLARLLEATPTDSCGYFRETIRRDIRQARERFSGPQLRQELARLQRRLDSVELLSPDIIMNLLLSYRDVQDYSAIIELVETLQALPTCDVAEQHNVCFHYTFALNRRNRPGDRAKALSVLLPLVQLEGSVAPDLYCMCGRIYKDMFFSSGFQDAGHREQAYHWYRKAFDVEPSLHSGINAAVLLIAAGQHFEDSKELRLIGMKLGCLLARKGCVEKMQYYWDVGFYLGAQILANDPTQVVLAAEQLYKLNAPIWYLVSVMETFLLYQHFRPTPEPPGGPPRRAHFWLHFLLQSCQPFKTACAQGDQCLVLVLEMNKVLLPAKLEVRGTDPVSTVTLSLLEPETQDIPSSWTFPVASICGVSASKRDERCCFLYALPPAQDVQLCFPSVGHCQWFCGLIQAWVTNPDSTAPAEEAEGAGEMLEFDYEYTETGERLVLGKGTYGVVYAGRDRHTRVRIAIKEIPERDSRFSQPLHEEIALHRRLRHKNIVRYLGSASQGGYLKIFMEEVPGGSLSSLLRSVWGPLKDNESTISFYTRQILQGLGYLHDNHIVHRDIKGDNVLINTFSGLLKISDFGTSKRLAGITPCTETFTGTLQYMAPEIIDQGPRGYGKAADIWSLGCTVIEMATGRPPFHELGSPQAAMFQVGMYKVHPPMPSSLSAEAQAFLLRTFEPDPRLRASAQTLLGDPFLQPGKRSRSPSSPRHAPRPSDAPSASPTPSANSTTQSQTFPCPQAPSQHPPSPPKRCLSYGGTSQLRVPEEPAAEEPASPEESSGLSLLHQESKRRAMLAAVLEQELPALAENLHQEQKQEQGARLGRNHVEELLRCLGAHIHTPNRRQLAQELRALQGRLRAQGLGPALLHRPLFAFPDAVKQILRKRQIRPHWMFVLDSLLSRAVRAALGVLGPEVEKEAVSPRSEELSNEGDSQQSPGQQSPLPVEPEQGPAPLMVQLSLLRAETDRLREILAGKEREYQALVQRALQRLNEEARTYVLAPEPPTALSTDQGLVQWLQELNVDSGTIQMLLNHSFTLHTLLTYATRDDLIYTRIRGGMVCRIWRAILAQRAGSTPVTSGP
# [8] = biological target: Mitogen-activated protein kinase kinase kinase 3 (Homo sapiens) (UniProt Q99759); conditions: Compound concentration 1000.0 nM
# [9] = biological target: D(1A) dopamine receptor (Homo sapiens) (UniProt P21728); conditions: Compound concentration 10.0 uM
# [10] = biological target: cAMP-dependent protein kinase catalytic subunit beta (Homo sapiens) (UniProt P22694); conditions: Compound concentration 1000.0 nM
# [11] = biological target: Mitogen-activated protein kinase kinase kinase 13 (Homo sapiens) (UniProt O43283); conditions: Compound concentration 1000.0 nM
# [12] = test system: Mast/stem cell growth factor receptor Kit (Homo sapiens), P10721 [V559D,T670I]; conditions: Compound concentration 1000.0 nM
# [13] = test system: Receptor-type tyrosine-protein kinase FLT3 (Homo sapiens), P36888 [UNDEFINED MUTATION]; conditions: Compound concentration 1000.0 nM
# [14] = biological target: Phosphatidylinositol 4,5-bisphosphate 3-kinase catalytic subunit gamma isoform (Homo sapiens) (UniProt P48736); conditions: Compound concentration 1000.0 nM
# [15] = biological target: Ribosomal protein S6 kinase alpha-1 (Homo sapiens) (UniProt Q15418); conditions: Compound concentration 1000.0 nM
# [16] = biological target: Megakaryocyte-associated tyrosine-protein kinase (Homo sapiens) (UniProt P42679); conditions: Compound concentration 1000.0 nM
# [17] = biological target: Vascular endothelial growth factor receptor 2 (Homo sapiens) (UniProt P35968); conditions: Compound concentration 1000.0 nM
# [18] = biological target: Insulin-like growth factor 1 receptor (Homo sapiens) (UniProt P08069); conditions: Compound concentration 1000.0 nM
# [19] = biological target: Tyrosine-protein kinase Yes (Homo sapiens) (UniProt P07947); conditions: Compound concentration 1000.0 nM
# Tyrosine-protein kinase Yes (Homo sapiens), sequence (P07947 2-543 limits assumed): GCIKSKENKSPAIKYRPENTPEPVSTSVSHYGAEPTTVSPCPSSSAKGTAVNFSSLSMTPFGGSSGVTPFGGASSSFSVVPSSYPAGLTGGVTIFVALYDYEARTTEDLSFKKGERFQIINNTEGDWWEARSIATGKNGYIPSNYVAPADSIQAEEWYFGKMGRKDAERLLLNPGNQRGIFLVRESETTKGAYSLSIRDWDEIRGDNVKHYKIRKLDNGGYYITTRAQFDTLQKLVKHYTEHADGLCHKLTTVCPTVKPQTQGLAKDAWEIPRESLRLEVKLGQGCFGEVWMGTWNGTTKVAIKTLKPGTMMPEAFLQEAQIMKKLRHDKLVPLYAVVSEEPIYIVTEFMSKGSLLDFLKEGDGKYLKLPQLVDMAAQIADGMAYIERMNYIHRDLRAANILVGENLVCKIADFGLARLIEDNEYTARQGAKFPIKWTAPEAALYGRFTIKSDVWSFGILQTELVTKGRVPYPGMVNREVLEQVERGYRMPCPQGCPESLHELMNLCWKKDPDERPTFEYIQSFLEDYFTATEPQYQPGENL
# [20] = biological target: Calcium/calmodulin-dependent protein kinase type 1B (Homo sapiens) (UniProt Q6P2M8); conditions: Compound concentration 1000.0 nM
# [21] = test system: Mast/stem cell growth factor receptor Kit (Homo sapiens), P10721 [V559D]; conditions: Compound concentration 1000.0 nM
# [22] = biological target: Serine/threonine-protein kinase RIO2 (Homo sapiens) (UniProt Q9BVS4); conditions: Compound concentration 1000.0 nM
# Serine/threonine-protein kinase RIO2 (Homo sapiens), sequence (Q9BVS4 whole entry, looked up): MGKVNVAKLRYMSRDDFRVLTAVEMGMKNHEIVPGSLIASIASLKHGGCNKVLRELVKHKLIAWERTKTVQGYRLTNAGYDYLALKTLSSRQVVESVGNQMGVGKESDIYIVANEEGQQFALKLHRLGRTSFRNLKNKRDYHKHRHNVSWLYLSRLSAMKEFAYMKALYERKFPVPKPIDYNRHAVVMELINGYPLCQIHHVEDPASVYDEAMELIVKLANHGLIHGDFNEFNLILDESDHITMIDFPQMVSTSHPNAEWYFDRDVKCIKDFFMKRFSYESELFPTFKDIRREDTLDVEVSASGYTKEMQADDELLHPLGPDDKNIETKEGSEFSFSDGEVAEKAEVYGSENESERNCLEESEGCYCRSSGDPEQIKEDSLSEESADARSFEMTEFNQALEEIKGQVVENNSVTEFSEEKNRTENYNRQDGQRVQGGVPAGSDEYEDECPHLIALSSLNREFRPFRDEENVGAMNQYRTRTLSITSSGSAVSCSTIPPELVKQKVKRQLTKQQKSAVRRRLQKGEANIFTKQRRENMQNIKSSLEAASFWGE
# [23] = biological target: Mitogen-activated protein kinase 6 (Homo sapiens) (UniProt Q16659); conditions: Compound concentration 1000.0 nM
# [24] = biological target: Bone morphogenetic protein receptor type-1B (Homo sapiens) (UniProt O00238); conditions: Compound concentration 1000.0 nM
# Bone morphogenetic protein receptor type-1B (Homo sapiens), sequence (O00238 whole entry): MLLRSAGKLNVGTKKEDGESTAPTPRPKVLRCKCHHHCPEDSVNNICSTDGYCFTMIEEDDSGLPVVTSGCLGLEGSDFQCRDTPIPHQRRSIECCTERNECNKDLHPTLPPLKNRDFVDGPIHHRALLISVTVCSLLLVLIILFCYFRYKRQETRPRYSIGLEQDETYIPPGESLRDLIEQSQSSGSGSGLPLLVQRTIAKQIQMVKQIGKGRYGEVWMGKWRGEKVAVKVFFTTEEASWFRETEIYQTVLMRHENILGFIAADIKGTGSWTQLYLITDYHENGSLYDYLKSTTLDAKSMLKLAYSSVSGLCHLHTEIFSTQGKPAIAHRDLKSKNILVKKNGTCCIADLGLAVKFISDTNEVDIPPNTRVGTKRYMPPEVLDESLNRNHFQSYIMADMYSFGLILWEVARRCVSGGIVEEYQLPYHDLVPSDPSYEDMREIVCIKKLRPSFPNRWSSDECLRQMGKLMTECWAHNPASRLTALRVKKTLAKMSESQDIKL
# [25] = test system: Receptor-type tyrosine-protein kinase FLT3 (Homo sapiens), P36888 [R834Q]; conditions: Compound concentration 1000.0 nM
# [26] = biological target: Myosin-IIIa (Homo sapiens) (UniProt Q8NEV4); conditions: Compound concentration 1000.0 nM
# Myosin-IIIa (Homo sapiens), sequence (Q8NEV4 whole entry): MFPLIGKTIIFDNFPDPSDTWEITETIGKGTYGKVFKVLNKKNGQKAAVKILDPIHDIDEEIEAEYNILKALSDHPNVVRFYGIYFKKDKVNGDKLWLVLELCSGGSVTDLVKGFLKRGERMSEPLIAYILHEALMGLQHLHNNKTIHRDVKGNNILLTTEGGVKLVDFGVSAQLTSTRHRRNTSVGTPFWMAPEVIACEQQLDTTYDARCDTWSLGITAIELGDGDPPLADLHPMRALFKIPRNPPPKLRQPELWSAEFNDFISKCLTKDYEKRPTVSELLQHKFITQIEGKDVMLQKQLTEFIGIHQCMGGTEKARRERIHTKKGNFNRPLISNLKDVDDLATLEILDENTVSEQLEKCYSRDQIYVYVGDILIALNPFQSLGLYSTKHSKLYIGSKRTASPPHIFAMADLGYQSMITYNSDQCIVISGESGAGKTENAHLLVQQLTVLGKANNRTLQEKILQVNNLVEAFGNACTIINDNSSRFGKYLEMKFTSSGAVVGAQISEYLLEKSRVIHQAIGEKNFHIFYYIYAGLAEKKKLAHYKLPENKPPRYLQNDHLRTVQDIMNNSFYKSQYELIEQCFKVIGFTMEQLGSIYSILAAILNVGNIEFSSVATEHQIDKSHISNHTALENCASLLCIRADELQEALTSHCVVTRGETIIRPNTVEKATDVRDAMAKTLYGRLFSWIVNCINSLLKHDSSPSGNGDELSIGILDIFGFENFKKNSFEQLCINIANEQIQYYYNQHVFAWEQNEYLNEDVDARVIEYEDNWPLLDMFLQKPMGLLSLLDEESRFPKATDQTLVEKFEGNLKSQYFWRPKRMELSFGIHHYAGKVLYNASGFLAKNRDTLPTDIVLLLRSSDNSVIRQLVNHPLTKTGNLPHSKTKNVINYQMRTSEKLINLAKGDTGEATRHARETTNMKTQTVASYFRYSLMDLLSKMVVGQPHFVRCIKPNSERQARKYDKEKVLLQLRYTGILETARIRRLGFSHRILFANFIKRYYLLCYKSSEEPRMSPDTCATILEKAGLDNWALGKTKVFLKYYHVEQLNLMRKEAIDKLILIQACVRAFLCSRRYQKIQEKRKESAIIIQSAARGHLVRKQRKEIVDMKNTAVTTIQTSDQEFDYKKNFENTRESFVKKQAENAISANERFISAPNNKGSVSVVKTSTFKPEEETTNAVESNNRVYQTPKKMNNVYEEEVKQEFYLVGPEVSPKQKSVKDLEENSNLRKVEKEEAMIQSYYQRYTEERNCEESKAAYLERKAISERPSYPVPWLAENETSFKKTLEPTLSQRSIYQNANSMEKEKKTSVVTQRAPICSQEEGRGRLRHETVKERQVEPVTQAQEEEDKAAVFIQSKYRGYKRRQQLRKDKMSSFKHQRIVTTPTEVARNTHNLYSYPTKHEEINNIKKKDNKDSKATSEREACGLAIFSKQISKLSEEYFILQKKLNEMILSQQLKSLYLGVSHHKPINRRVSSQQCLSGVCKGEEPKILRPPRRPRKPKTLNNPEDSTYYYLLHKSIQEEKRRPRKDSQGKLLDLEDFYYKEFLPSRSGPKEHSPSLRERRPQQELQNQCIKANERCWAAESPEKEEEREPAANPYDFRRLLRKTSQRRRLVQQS
# [27] = biological target: Inhibitor of nuclear factor kappa-B kinase subunit epsilon (Homo sapiens) (UniProt Q14164); conditions: Compound concentration 1000.0 nM
# [28] = biological target: Dual specificity protein kinase CLK4 (Homo sapiens) (UniProt Q9HAZ1); conditions: Compound concentration 1000.0 nM
# [29] = biological target: Ephrin type-B receptor 6 (Homo sapiens) (UniProt O15197); conditions: Compound concentration 1000.0 nM
# [30] = biological target: Ephrin type-B receptor 2 (Homo sapiens) (UniProt P29323); conditions: Compound concentration 1000.0 nM
# [31] = biological target: MAP/microtubule affinity-regulating kinase 4 (Homo sapiens) (UniProt Q96L34); conditions: Compound concentration 1000.0 nM
# [32] = biological target: Serine/threonine-protein kinase ULK3 (Homo sapiens) (UniProt Q6PHR2); conditions: Compound concentration 1000.0 nM
# [33] = biological target: Ribosomal protein S6 kinase alpha-4 (Homo sapiens) (UniProt O75676); conditions: Compound concentration 1000.0 nM
# [34] = biological target: Serine/threonine-protein kinase 16 (Homo sapiens) (UniProt O75716); conditions: Compound concentration 1000.0 nM
# [35] = biological target: RAC-alpha serine/threonine-protein kinase (Homo sapiens) (UniProt P31749); conditions: Compound concentration 1000.0 nM
# [36] = biological target: Cyclin-dependent kinase 18 (Homo sapiens) (UniProt Q07002); conditions: Compound concentration 1000.0 nM
# [37] = biological target: Cyclin-dependent kinase 13 (Homo sapiens) (UniProt Q14004); conditions: Compound concentration 1000.0 nM
# [38] = biological target: Histamine H2 receptor (Homo sapiens) (UniProt P25021); conditions: Compound concentration 10.0 uM
# [39] = test system: Epidermal growth factor receptor (Homo sapiens), P00533 [L858R,T790M]; conditions: Compound concentration 1000.0 nM
# [40] = biological target: Tyrosine-protein kinase BTK (Homo sapiens) (UniProt Q06187); conditions: Compound concentration 1000.0 nM
# [41] = biological target: 5-hydroxytryptamine receptor 1D (Homo sapiens) (UniProt P28221); conditions: Compound concentration 10.0 uM
# [42] = biological target: Alpha-2C adrenergic receptor (Homo sapiens) (UniProt P18825); conditions: Compound concentration 10.0 uM
# [43] = biological target: Ribosomal protein S6 kinase alpha-5 (Homo sapiens) (UniProt O75582); conditions: Compound concentration 1000.0 nM
# [44] = biological target: Cyclin-dependent kinase 3 (Homo sapiens) (UniProt Q00526); conditions: Compound concentration 1000.0 nM
# [45] = biological target: Serine/threonine-protein kinase Sgk3 (Homo sapiens) (UniProt Q96BR1); conditions: Compound concentration 1000.0 nM
# Serine/threonine-protein kinase Sgk3 (Homo sapiens), sequence (Q96BR1 whole entry): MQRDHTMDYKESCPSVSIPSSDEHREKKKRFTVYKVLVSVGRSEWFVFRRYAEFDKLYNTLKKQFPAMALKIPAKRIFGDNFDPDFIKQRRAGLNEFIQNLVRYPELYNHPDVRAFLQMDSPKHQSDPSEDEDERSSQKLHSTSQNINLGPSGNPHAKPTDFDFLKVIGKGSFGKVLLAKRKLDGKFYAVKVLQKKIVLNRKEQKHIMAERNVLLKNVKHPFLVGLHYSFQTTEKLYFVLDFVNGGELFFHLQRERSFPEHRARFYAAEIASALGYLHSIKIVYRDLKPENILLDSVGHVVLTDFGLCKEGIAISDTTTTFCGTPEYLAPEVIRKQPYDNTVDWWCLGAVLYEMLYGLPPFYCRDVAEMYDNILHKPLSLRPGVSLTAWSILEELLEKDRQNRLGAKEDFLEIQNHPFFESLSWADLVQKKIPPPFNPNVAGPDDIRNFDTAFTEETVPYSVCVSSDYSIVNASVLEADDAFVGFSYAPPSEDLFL
smiles,measurement,setting,value
Cc1nc(N2CC[C@@H](O)C2)ncc1-c1cc(C(F)(F)F)cc2[nH]ncc12 [TP-004],residual activity,[1],100%
same,residual activity,[2],100%
same,residual activity,[3],89%
same,residual activity,[4],100%
same,inhibition,[5],-5.65%
same,residual activity,[6],100%
same,residual activity,[7],68%
same,residual activity,[8],82%
same,inhibition,[9],11.1%
same,residual activity,[10],79%
same,residual activity,[11],56%
same,residual activity,[12],68%
same,residual activity,[13],100%
same,residual activity,[14],82%
same,residual activity,[15],91%
same,residual activity,[16],86%
same,residual activity,[17],53%
same,residual activity,[18],100%
same,residual activity,[19],90%
same,residual activity,[20],90%
same,residual activity,[21],58%
same,residual activity,[22],100%
same,residual activity,[23],83%
same,residual activity,[24],60%
same,residual activity,[25],73%
same,residual activity,[26],100%
same,residual activity,[27],89%
same,residual activity,[28],92%
same,residual activity,[29],36%
same,residual activity,[30],100%
same,residual activity,[31],80%
same,residual activity,[32],78%
same,residual activity,[33],68%
same,residual activity,[34],92%
same,residual activity,[35],100%
same,residual activity,[36],100%
same,residual activity,[37],90%
same,inhibition,[38],-8.45%
same,residual activity,[39],73%
same,residual activity,[40],63%
same,inhibition,[41],-8.55%
same,inhibition,[42],2.18%
same,residual activity,[43],100%
same,residual activity,[44],83%
same,residual activity,[45],70%
